Results: patent publication US8686044B2, “Amide derivative, pest control agent containing the amide derivative, and use of the amide derivative” (Mitsui Chemicals Agro, Inc., priority 2008, dated 2014)

Experiments:
Assay type in all cases: in vivo
Blattella germanica = experiment: Pesticidal test against Blattella germanica (petri dish dry film); settings: 24 h, concentration 100 ppm, female adults, examined after 1 day, 25° C., read-out: pesticidal rate
Experimental: Pesticidal Test against Blattella germanica
1 ml of an acetone solution in which a test compound had been prepared at a predetermined concentration was added dropwise to a petri dish having a diameter of 9 cm, and air-dried, and then the female adults of Blattella germanica were released and the petri dish was capped. They were left to stand in a thermostatic chamber at 25° C., and the numbers of the living pests and the dead pests were examined after 1 day. The test was carried out with five larvae per group in two replicates.

Spodoptera litura = experiment: Pesticidal test against Spodoptera litura (cabbage leaf dip); settings: foliar, 144 h, concentration 1 ppm, 2-stage larvae, examined after 6 days, 25° C., read-out: pesticidal rate
In short: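 Cabbage leaf pieces dipped 30 seconds in compound solution at a predetermined concentration and air-dried, then offered to second-stage larvae, five per group in two replicates. Held at 25° C. Living and dead larvae counted after 6 days.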

Plutella xylostella = experiment: Pesticidal test against Plutella xylostella (cabbage leaf dip); settings: foliar, 144 h, concentration 1 ppm, 2-stage larvae, examined after 6 days, 25° C., read-out: pesticidal rate
In short: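 Cabbage leaf pieces dipped 30 s in test solution at a predetermined concentration, air-dried, then offered to 2nd-instar larvae, five per group in duplicate. Held at 25° C; living and dead larvae counted after 6 days.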

Musca domestica = experiment: Pesticidal test against Musca domestica (petri dish dry film); settings: 24 h, concentration 100 ppm, female adults, examined after 1 day, 25° C., read-out: pesticidal rate
In short: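 Dry film from 1 ml acetone solution of compound at a predetermined concentration, air-dried in a 9 cm petri dish; female adult flies released and dish capped. Held at 25° C; living and dead counted after 1 day. Five insects per group, two replicates.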

Laodelphax striatellus = experiment: Pesticidal test against Laodelphax striatellus (rice seedling spray); settings: 144 h, concentration 100 ppm, 3-stage larvae, examined after 6 days, 25° C., read-out: pesticidal rate
In short: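 Rice seedlings sprayed with 2.5 ml acetone solution of compound at a predetermined concentration, air-dried, then infested with third-stage Laodelphax striatellus larvae in capped water-containing tubes at 25 °C. Living and dead insects counted after 6 days; ten larvae per group, two replicates.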

Choristoneura magnanima = experiment: Pesticidal test against Choristoneura magnanima (artificial feed dip); settings: 144 h, 2-stage larvae, examined after 6 days, 25° C., read-out: pesticidal rate; for pest or weed control at 1 ppm: concentration 1 ppm
Experimental: Pesticidal Test against Choristoneura magnanima A thinly sliced artificial feed was immersed for 30 seconds in a chemical solution in which a test compound had been prepared at a predetermined concentration, and air-dried, and then put into a 7 cm polyethylene cup having a filter paper laid on the bottom thereof, and 2-stage larvae of Choristoneura magnanima were released. They were left to stand in a thermostatic chamber at 25° C., and the numbers of the living pests and the dead pests were examined after 6 days. The test was carried out with five larvae per group in two replicates. Further, the above compound (A) was used as a comparative compound.

Adoxophyes honmai = experiment: Pesticidal test against Adoxophyes honmai (artificial feed dip); settings: 144 h, 2-stage larvae, examined after 6 days, 25° C., read-out: pesticidal rate; for pest or weed control at 1 ppm: concentration 1 ppm; for pest or weed control at 10 ppm: concentration 10 ppm
In short: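 Thin artificial feed slices dipped 30 s in test solution at a predetermined concentration, air-dried, then offered to 2nd-stage larvae. Kept at 25° C; live and dead larvae counted after 6 days. Five larvae per group, two replicates.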

Helicoverpa armigera = experiment: Pesticidal test against Helicoverpa armigera (cabbage leaf disk dip); settings: foliar, 72 h, concentration 1 ppm, 2-stage larvae, examined after 3 days, 25° C., read-out: pesticidal rate
In short: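 Cabbage leaf disks were dipped for 30 s in test solution at a set concentration and air-dried. Second-instar larvae were placed one per hole and held at 25 °C, with live and dead counts taken after 3 days. Five larvae per group were tested in two replicates.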

N#Cc1ccc(C(=O)Nc2c(Br)cc(C(F)(C(F)(F)F)C(F)(F)F)cc2C(F)(F)F)c(F)c1NC(=O)c1ccccc1 [1-1925]
≥ 70%: pest or weed control at 100 ppm (Blattella germanica) | pest or weed control at 1 ppm (Spodoptera litura) | pest or weed control at 1 ppm (Plutella xylostella) | pest or weed control at 100 ppm (Musca domestica)

O=C(Nc1c(Br)cc(C(F)(C(F)(F)F)C(F)(F)C(F)(F)F)cc1Br)c1cccc(NC(=O)c2ccccc2F)c1 (stereo not shown) [6-39]
≥ 70%: pest or weed control at 100 ppm (Blattella germanica) | pest or weed control at 1 ppm (Spodoptera litura) | pest or weed control at 1 ppm (Plutella xylostella) | pest or weed control at 100 ppm (Laodelphax striatellus) | pest or weed control at 100 ppm (Musca domestica)

O=C(Nc1c(Br)cc(C(F)(C(F)(F)F)C(F)(F)C(F)(F)F)cc1Br)c1cccc(NC(=O)c2c(F)cccc2F)c1 (stereo not shown) [6-47]
≥ 70%: pest or weed control at 100 ppm (Blattella germanica) | pest or weed control at 1 ppm (Spodoptera litura) | pest or weed control at 1 ppm (Plutella xylostella) | pest or weed control at 100 ppm (Laodelphax striatellus) | pest or weed control at 100 ppm (Musca domestica)

O=C(Nc1cccc(C(=O)Nc2c(Br)cc(C(F)(C(F)(F)F)C(F)(F)F)cc2Br)c1F)c1ccccc1F [6-1105]
≥ 70%: pest or weed control at 100 ppm (Blattella germanica) | pest or weed control at 1 ppm (Spodoptera litura) | pest or weed control at 1 ppm (Plutella xylostella) | pest or weed control at 100 ppm (Musca domestica)

N#Cc1ccc(C(=O)Nc2cccc(C(=O)Nc3c(Br)cc(C(F)(C(F)(F)F)C(F)(F)F)cc3Br)c2F)cc1 [6-1125]
≥ 70%: pest or weed control at 100 ppm (Blattella germanica) | pest or weed control at 1 ppm (Spodoptera litura) | pest or weed control at 1 ppm (Plutella xylostella) | pest or weed control at 100 ppm (Musca domestica)

N#Cc1cccc(C(=O)Nc2cccc(C(=O)Nc3c(I)cc(C(F)(C(F)(F)F)C(F)(F)F)cc3I)c2F)c1 [6-1280]
≥ 70%: pest or weed control at 100 ppm (Blattella germanica) | pest or weed control at 1 ppm (Spodoptera litura) | pest or weed control at 1 ppm (Plutella xylostella) | pest or weed control at 100 ppm (Laodelphax striatellus)

O=C(Nc1cccc(C(=O)Nc2c(I)cc(C(F)(C(F)(F)F)C(F)(F)F)cc2I)c1F)c1cccnc1Cl [6-1296]
≥ 70%: pest or weed control at 100 ppm (Blattella germanica) | pest or weed control at 1 ppm (Spodoptera litura) | pest or weed control at 1 ppm (Plutella xylostella) | pest or weed control at 100 ppm (Laodelphax striatellus)

O=C(Nc1cccc(C(=O)Nc2c(Br)cc(C(F)(C(F)(F)F)C(F)(F)F)cc2C(F)(F)F)c1F)c1cccnc1Cl [6-1610]
≥ 70%: pest or weed control at 100 ppm (Blattella germanica) | pest or weed control at 1 ppm (Spodoptera litura) | pest or weed control at 1 ppm (Plutella xylostella) | pest or weed control at 100 ppm (Laodelphax striatellus)

O=C(Nc1c(I)cc(C(F)(C(F)(F)F)C(F)(F)C(F)(F)F)cc1C(F)(F)F)c1cccc(NC(=O)c2c(F)cccc2F)c1F (stereo not shown) [6-1830]
≥ 70%: pest or weed control at 1 ppm (Spodoptera litura) | pest or weed control at 1 ppm (Plutella xylostella) | pest or weed control at 100 ppm (Laodelphax striatellus) | pest or weed control at 1 ppm (Choristoneura magnanima) | pest or weed control at 100 ppm (Musca domestica) | pest or weed control at 1 ppm (Adoxophyes honmai) | pest or weed control at 1 ppm (Helicoverpa armigera)

O=C(Nc1cccc(C(=O)Nc2c(I)cc(C(F)(C(F)(F)F)C(F)(F)C(F)(F)F)cc2C(F)(F)F)c1F)c1ccc(Cl)nc1 (stereo not shown) [6-1851]
≥ 70%: pest or weed control at 1 ppm (Spodoptera litura) | pest or weed control at 1 ppm (Plutella xylostella) | pest or weed control at 100 ppm (Laodelphax striatellus) | pest or weed control at 1 ppm (Choristoneura magnanima) | pest or weed control at 100 ppm (Musca domestica) | pest or weed control at 10 ppm (Adoxophyes honmai) | pest or weed control at 1 ppm (Helicoverpa armigera)

O=C(Nc1cccc(C(=O)Nc2c(C(F)(F)F)cc(C(F)(C(F)(F)F)C(F)(F)F)cc2C(F)(F)F)c1F)c1ccccc1 [6-2110, 3-benzamide-2-fluoro-N-(4-(perfluoropropan-2-yl)-2,6-bis(trifluoromethyl)phenyl)benzamide]
≥ 70%: pest or weed control at 1 ppm (Spodoptera litura) | pest or weed control at 1 ppm (Plutella xylostella) | pest or weed control at 100 ppm (Laodelphax striatellus) | pest or weed control at 10 ppm (Choristoneura magnanima; concentration 10 ppm) | pest or weed control at 100 ppm (Musca domestica) | pest or weed control at 10 ppm (Adoxophyes honmai) | pest or weed control at 1 ppm (Helicoverpa armigera)

CN(C(=O)c1cccnc1Br)c1cccc(C(=O)Nc2c(Br)cc(C(F)(C(F)(F)F)C(F)(F)F)cc2C(F)(F)F)c1 [7-305]
≥ 70%: pest or weed control at 100 ppm (Blattella germanica) | pest or weed control at 1 ppm (Spodoptera litura) | pest or weed control at 1 ppm (Plutella xylostella) | pest or weed control at 100 ppm (Laodelphax striatellus)

CN(C(=O)c1ccccc1F)c1cccc(C(=O)Nc2c(Br)cc(C(F)(C(F)(F)F)C(F)(F)C(F)(F)F)cc2C(F)(F)F)c1 (stereo not shown) [7-347]
≥ 70%: pest or weed control at 100 ppm (Blattella germanica) | pest or weed control at 1 ppm (Spodoptera litura) | pest or weed control at 1 ppm (Plutella xylostella)

CN(C(=O)c1cccc(F)c1)c1cccc(C(=O)Nc2c(Br)cc(C(F)(C(F)(F)F)C(F)(F)C(F)(F)F)cc2C(F)(F)F)c1 (stereo not shown) [7-348]
≥ 70%: pest or weed control at 1 ppm (Spodoptera litura) | pest or weed control at 1 ppm (Plutella xylostella) | pest or weed control at 100 ppm (Laodelphax striatellus) | pest or weed control at 1 ppm (Choristoneura magnanima) | pest or weed control at 100 ppm (Musca domestica) | pest or weed control at 1 ppm (Adoxophyes honmai) | pest or weed control at 1 ppm (Helicoverpa armigera)

CN(C(=O)c1ccc(F)cc1)c1cccc(C(=O)Nc2c(Br)cc(C(F)(C(F)(F)F)C(F)(F)C(F)(F)F)cc2C(F)(F)F)c1 (stereo not shown) [7-349]
≥ 70%: pest or weed control at 100 ppm (Blattella germanica) | pest or weed control at 1 ppm (Spodoptera litura) | pest or weed control at 1 ppm (Plutella xylostella) | pest or weed control at 100 ppm (Musca domestica)

CN(C(=O)c1ccc(C#N)cc1)c1cccc(C(=O)Nc2c(Br)cc(C(F)(C(F)(F)F)C(F)(F)C(F)(F)F)cc2C(F)(F)F)c1 (stereo not shown) [7-367]
≥ 70%: pest or weed control at 100 ppm (Blattella germanica) | pest or weed control at 1 ppm (Spodoptera litura) | pest or weed control at 1 ppm (Plutella xylostella) | pest or weed control at 100 ppm (Musca domestica)

CN(C(=O)c1ccccc1F)c1cccc(C(=O)Nc2c(I)cc(C(F)(C(F)(F)F)C(F)(F)F)cc2I)c1F [7-1261]
≥ 70%: pest or weed control at 100 ppm (Blattella germanica) | pest or weed control at 1 ppm (Spodoptera litura) | pest or weed control at 1 ppm (Plutella xylostella) | pest or weed control at 100 ppm (Laodelphax striatellus)

CN(C(=O)c1cccc(C#N)c1)c1cccc(C(=O)Nc2c(I)cc(C(F)(C(F)(F)F)C(F)(F)C(F)(F)F)cc2I)c1F (stereo not shown) [7-1358]
≥ 70%: pest or weed control at 1 ppm (Spodoptera litura) | pest or weed control at 1 ppm (Plutella xylostella) | pest or weed control at 100 ppm (Laodelphax striatellus) | pest or weed control at 1 ppm (Choristoneura magnanima) | pest or weed control at 100 ppm (Musca domestica) | pest or weed control at 1 ppm (Adoxophyes honmai) | pest or weed control at 1 ppm (Helicoverpa armigera)

CN(C(=O)c1ccccc1)c1cccc(C(=O)Nc2c(Br)cc(C(F)(C(F)(F)F)C(F)(F)C(F)(F)F)cc2C(F)(F)F)c1F (stereo not shown) [7-1652]
≥ 70%: pest or weed control at 1 ppm (Spodoptera litura) | pest or weed control at 1 ppm (Plutella xylostella) | pest or weed control at 100 ppm (Laodelphax striatellus) | pest or weed control at 1 ppm (Choristoneura magnanima) | pest or weed control at 100 ppm (Musca domestica) | pest or weed control at 1 ppm (Adoxophyes honmai) | pest or weed control at 1 ppm (Helicoverpa armigera)

CN(C(=O)c1cccnc1)c1cccc(C(=O)Nc2c(I)cc(C(F)(C(F)(F)F)C(F)(F)F)cc2C(F)(F)F)c1F [7-1764]
≥ 70%: pest or weed control at 1 ppm (Spodoptera litura) | pest or weed control at 1 ppm (Plutella xylostella) | pest or weed control at 100 ppm (Laodelphax striatellus) | pest or weed control at 1 ppm (Choristoneura magnanima) | pest or weed control at 100 ppm (Musca domestica) | pest or weed control at 1 ppm (Adoxophyes honmai) | pest or weed control at 1 ppm (Helicoverpa armigera)

CN(C(=O)c1ccccc1)c1cccc(C(=O)Nc2c(I)cc(C(F)(C(F)(F)F)C(F)(F)C(F)(F)F)cc2C(F)(F)F)c1F (stereo not shown) [7-1808]
≥ 70%: pest or weed control at 1 ppm (Spodoptera litura) | pest or weed control at 1 ppm (Plutella xylostella) | pest or weed control at 100 ppm (Laodelphax striatellus) | pest or weed control at 1 ppm (Choristoneura magnanima) | pest or weed control at 100 ppm (Musca domestica) | pest or weed control at 1 ppm (Adoxophyes honmai) | pest or weed control at 1 ppm (Helicoverpa armigera)

CN(C(=O)c1ccccc1F)c1cccc(C(=O)Nc2c(I)cc(C(F)(C(F)(F)F)C(F)(F)C(F)(F)F)cc2C(F)(F)F)c1F (stereo not shown) [7-1809]
≥ 70%: pest or weed control at 1 ppm (Spodoptera litura) | pest or weed control at 1 ppm (Plutella xylostella) | pest or weed control at 100 ppm (Laodelphax striatellus) | pest or weed control at 1 ppm (Choristoneura magnanima) | pest or weed control at 100 ppm (Musca domestica) | pest or weed control at 1 ppm (Adoxophyes honmai) | pest or weed control at 1 ppm (Helicoverpa armigera)

CN(C(=O)c1cccc(F)c1)c1cccc(C(=O)Nc2c(I)cc(C(F)(C(F)(F)F)C(F)(F)C(F)(F)F)cc2C(F)(F)F)c1F (stereo not shown) [7-1810]
≥ 70%: pest or weed control at 1 ppm (Spodoptera litura) | pest or weed control at 1 ppm (Plutella xylostella) | pest or weed control at 100 ppm (Laodelphax striatellus) | pest or weed control at 1 ppm (Choristoneura magnanima) | pest or weed control at 100 ppm (Musca domestica) | pest or weed control at 1 ppm (Adoxophyes honmai) | pest or weed control at 1 ppm (Helicoverpa armigera)

CN(C(=O)c1ccc(F)cc1)c1cccc(C(=O)Nc2c(I)cc(C(F)(C(F)(F)F)C(F)(F)C(F)(F)F)cc2C(F)(F)F)c1F (stereo not shown) [7-1811]
≥ 70%: pest or weed control at 1 ppm (Spodoptera litura) | pest or weed control at 1 ppm (Plutella xylostella) | pest or weed control at 100 ppm (Laodelphax striatellus) | pest or weed control at 1 ppm (Choristoneura magnanima) | pest or weed control at 100 ppm (Musca domestica) | pest or weed control at 1 ppm (Adoxophyes honmai) | pest or weed control at 1 ppm (Helicoverpa armigera)
